This is an account of results in patent US20250186470A1, “Compositions and Methods Using Lactulose for Treating Disease” (THE UNIVERSITY OF CHICAGO, priority 2023, published 2025).

Data set [1] concerns B. longum. The experiment in a line: Ex-germ-free mice colonized with 8-11 strain consortia containing B. longum +/- lactulose. It counts as in vivo, mouse.
From the text: (A) Schematic indicating timing of consortia gavage, lactulose administration (20 g/L in drinking water), and stool collection in ex-germ-free mice. […] (B) 16S metagenomics from stool samples without (left facet within each consortia) and with (right facet within each consortia) lactulose exposure is shown as relative abundance. Concentrations of acetate and taurocholic acid are shown in units of mM below each paired sample. (C) Bifidobacteria relative abundance, acetate concentration (mM), and taurocholic acid concentrations (μg/ml) were measured and compared between mice that were and were not exposed to lactulose. […] DNA was extracted using the QIAamp PowerFecal Pro DNA kit (Qiagen). Prior to extraction, samples were subjected to mechanical disruption using a bead beating method. Briefly, samples were suspended in a bead tube (Qiagen) along with lysis buffer and loaded on a bead mill homogenizer (Fisherbrand). Samples were then centrifuged, and supernatant was resuspended in a reagent that effectively removed inhibitors. DNA was then purified routinely using a spin column filter membrane and quantified using Qubit. […] Short chain fatty acids (SCFA, i.e. butyrate, acetate, propionate, and succinate) were derivatized with pentafluorobenzyl bromide (PFBBr) and analyzed via negative ion collision induced-gas chromatography-mass spectrometry ([-]CI-GC-MS, Agilent 8890) 92. Eight bile acids (BA, i.e. primary: cholic acid; conjugated primary: glycocholic acid, taurocholic acid; secondary: deoxycholic acid, lithocholic acid [LCA], isodeoxycholic acid; modified secondary: alloisolithocholic acid [alloisoLCA] and 3-oxolithocholic acid [3-oxoLCA]) were quantified (μg/mL) by negative mode liquid chromatography-electrospray ionization-quadrupole time-of-flight-MS ([-]LC-ESI-QTOF-MS, Agilent 6546). […] For germ-free studies, 6-18 week-old male and female C57BL/6 mice were used. Mice were initially obtained from The Jackson Laboratory and subsequently bred and raised in a germ-free isolator. […]
The subject of data set [2] is B. longum. The experiment in a line: B. longum growth, pH and SCFA in BHIS with 50 mM lactulose or sucrose. Format: cell-based, Bifidobacterium longum. The text has this:
FIGS. 4A-4D: Lactulose-mediated Bifidobacteria expansion is associated with exclusion of antibiotic-resistant Enterococcus species. (A) Relative abundance of potentially pathogenic taxa Enterococcus and Proteobacteria were plotted based on lactulose exposure (no lactulose, left; lactulose, right) and relative abundance of Bifidobacteria (<10%, blue; ≥10%, red). Each point represents a single sample with the following sample sizes: total n=262; no lactulose, <10%, n=79; no lactulose, ≥10%, n=24; lactulose, <10%, n=87; lactulose, ≥10%, n=72. Median and interquartile range are indicated by the horizontal line and box, respectively. The lower vertical line depicts Q1-1.5*IQR and the upper vertical line depicts Q3+1.5*IQR. Statistical comparisons between individual groups were analyzed using a two-tailed Wilcoxon rank sum test. P-values are adjusted for multiple comparisons using the Benjamini-Hochberg procedure and represented as follows: *, p<0.05; **, p<0.01; ***, p<0.001; ****, p<0.0001. (B) A human-derived B. longum species was grown in BHIS media (blue) or BHIS supplemented with 50 mM lactulose (red) or 50 mM sucrose (green), and growth curves (OD600 over time) are shown. […] This graph is representative of three independent experiments, also done in triplicate, all with consistent results. (C) Schematic of experimental design for B. longum (purple bacilli) and VRE (green cocci) co-culture. B. longum and VRE were grown to steady state and diluted to low density (OD600=0.05) prior to inoculation in either BHIS or BHIS supplemented with 50 mM lactulose. Cultures were inoculated with both bacteria simultaneously (top) or B. longum was given either a 24-hour or 48-hour lead time prior to VRE inoculation (bottom). (D) After 24-hours of co-culture, serial dilutions of three replicates were plated for VRE c.f.u. counts. Each replicate is plotted as an individual point, and the median is represented by the horizontal line. […]
(C and D) Supernatant BA quantified after 24 h of B. longum growth in media containing 10 μg/ml conjugated primary BA ((C) TCA or (D) GCA). n=4 all conditions. […]

Data set [3] deals with B. longum.
Method: B. longum was grown in regular media (blue) or media supplemented with 50 mM lactulose (red) or sucrose (green). (A) pH before and after 24 h of growth (n=3 for 0 h; n=6 for 24 h). (B) SCFA concentrations after 24 h of growth. n=6 all conditions. […] Plots are representative of three independent experiments with ≥3 technical replicates all with consistent results. TCA: taurocholic acid, GCA: glycocholic acid, CA: cholic acid, CDCA: chenodeoxycholic acid, DCA: deoxycholic acid, and LCA: lithocholic acid. (E) Schematic of B. longum gavage, lactulose administration, and stool collection in ex-GF mice. […] (I-K) SCFA concentrations before and 10-days after Bifidobacteria inoculation. Each dot represents one sample from each mouse. […] (L) Primary, (M) conjugated primary, and (N) secondary BA were measured at indicated timepoints. Each dot represents one sample from each mouse. […] Short chain fatty acids (SCFA, i.e. butyrate, acetate, propionate, and succinate) were derivatized with pentafluorobenzyl bromide (PFBBr) and analyzed via negative ion collision induced-gas chromatography-mass spectrometry ([-]CI-GC-MS, Agilent 8890) 92. Eight bile acids (BA, i.e. primary: cholic acid; conjugated primary: glycocholic acid, taurocholic acid; secondary: deoxycholic acid, lithocholic acid [LCA], isodeoxycholic acid; modified secondary: alloisolithocholic acid [alloisoLCA] and 3-oxolithocholic acid [3-oxoLCA]) were quantified (μg/mL) by negative mode liquid chromatography-electrospray ionization-quadrupole time-of-flight-MS ([-]LC-ESI-QTOF-MS, Agilent 6546). […] All mouse studies were approved by The University of Chicago Institutional Animal Care and Use Committee (IACUC, Protocol 72599). For germ-free studies, 6-18 week-old male and female C57BL/6 mice were used.
A further data set relates to Bifidobacteria. The experiment in a line: Fecal shotgun metagenomics of hospitalized liver disease patients stratified by lactulose exposure: Bifidobacteria abundance. It counts as in vivo, human. The note with it: for Regression estimate, association with Bifidobacteria abundance: Table S1, factors lactulose, PPI, stool consistency, antibiotics.
A further data set deals with Enterococcus. Kind of data set: Fecal shotgun metagenomics of hospitalized liver disease patients stratified by lactulose exposure: Enterococcus abundance. Format: in vivo, human. The settings on record: for Regression estimate, association with Enterococcus abundance: Table S1, factors lactulose, PPI, stool consistency, antibiotics.
Setting [4] is: lactulose 10 days, B. longum colonized mice.
Where [5] appears, read: lactulose treated patients, one sample per patient.
The mark [6] stands for this setting: fecal samples from lactulose-treated patients.

As to `OC[C@H]1O[C@@H](O[C@@H]2[C@@H](CO)OC(O)(CO)[C@H]2O)[C@H](O)[C@@H](O)[C@H]1O` (mixture of isomers) [Lactulose, lactulose], the “Relative abundance of B. longum” value with B. longum [1] (all consortia (CON.1-3), 20 g/L lactulose in drinking water) is recorded as “increased”. Also, the “Fecal taurocholic acid concentrations” value in the data set with B. longum [1] (all three consortia, 20 g/L lactulose) is “reduced”. The Fecal acetate concentrations entry in the data set on B. longum [1] (consortia, 20 g/L lactulose) is given as “only modestly increased”. Further, in the data set with B. longum [2] (50 mM lactulose, 24 h), the “Acetate in B. longum culture” value is listed as “acetate production” and the “Media pH after B. longum growth” value is recorded as “media acidification”. The “B. longum culture growth (OD600)” value in the data set with B. longum [2] (BHIS supplemented with 50 mM sugar) is “augmented”. The Stool water content result in the data set on B. longum [3] (GF mice, 20 g/L lactulose in water) was “increased”. Further, in the data set with B. longum [3] (setting [4]), the Fecal acetate concentration entry is “elevated”, the “Fecal conjugated BA concentrations” value is given as “reduced” and the “Fecal unconjugated primary BA concentrations” value was “elevated”. Also, the Lactulose in stool result in the data set with B. longum [3] (mouse, in vivo) is reported as “detectable”. In addition, the “Regression estimate, association with Bifidobacteria abundance” value in the data set on Bifidobacteria is 0.17. The “Regression estimate, association with Bifidobacteria abundance” value with Bifidobacteria (listed as lactulose) is “positively associates”. Moreover, in the data set with Bifidobacteria (setting [5]), the “Bifidobacteria abundance, mean” value is 22.2% and the “Bifidobacteria abundance, range” value is reported as 0.0-94.7%. Further, the “Fecal samples having ≥10% Bifidobacteria abundance” value in the data set with Bifidobacteria (lactulose within 7 days prior to sample collection, one sample per patient) is recorded as 45.2%. In addition, the Bifidobacteria density result in the data set with Bifidobacteria (patients without antibiotics in the preceding 7 days, lactulose-treated vs not) is recorded as “significantly increased”. In addition, the “Regression estimate, association with Enterococcus abundance” value in the data set with Enterococcus is reported as 0.11. Further, the “Regression estimate, association with Enterococcus abundance” value with Enterococcus (listed as lactulose) is reported as “positively associates”. In the data set with Enterococcus (setting [6]), the “Enterococcus abundance, mean” value is 19.4%; the “Enterococcus abundance, median” value is reported as 0.9%; the “Enterococcus abundance, range” value was 0.0-100%.
